Laboratory results taken from patent US20260130395A1, “Water Dispersible Botanical Compositions” (Aquila Black Limited, priority 2021, published 2026).

Tests used:
[1] = Stability of cannabinoid entourage and Vitamin E components of the powder concentrate by LCMSMS; type: physicochemical; conditions: powder stored at 21-25° C.
Procedure: At each time period, 0.05 g of powder was dissolved in 10 ml-15 of ethanol, diluted to fall within the analytical range, and injected into the LCMSMS for analysis.

[2] = Stability of cannabinoid compounds and Vitamin E components in Beverage 1 (AB White) by LCMSMS; type: physicochemical

## Cc1c(C)c2c(c(C)c1OC(=O)CCC(=O)O)CC[C@@](C)(CCC[C@H](C)CCC[C@H](C)CCCC(C)C)O2 [α-Tocopheryl succinate]
[1]; 0 days
  Stability of Vitamin Es in Powder Concentrate: 1.82 mg/g powder
[1]; 1 days
  Stability of Vitamin Es in Powder Concentrate: 1.81 mg/g powder
[1]; 2 days
  Stability of Vitamin Es in Powder Concentrate: 1.81 mg/g powder
[1]; 3 days
  Stability of Vitamin Es in Powder Concentrate: 1.81 mg/g powder
[1]; 5 days
  Stability of Vitamin Es in Powder Concentrate: 1.83 mg/g powder
[1]; 8 days
  Stability of Vitamin Es in Powder Concentrate: 1.90 mg/g powder
[1]; 9 days
  Stability of Vitamin Es in Powder Concentrate: 1.89 mg/g powder
[1]; 10 days
  Stability of Vitamin Es in Powder Concentrate: 1.87 mg/g powder
[1]; 11 days
  Stability of Vitamin Es in Powder Concentrate: 1.89 mg/g powder
[1]; 12 days
  Stability of Vitamin Es in Powder Concentrate: 1.87 mg/g powder
[1]; 15 days
  Stability of Vitamin Es in Powder Concentrate: 1.87 mg/g powder
[1]; 16 days
  Stability of Vitamin Es in Powder Concentrate: 1.83 mg/g powder
[1]; 17 days
  Stability of Vitamin Es in Powder Concentrate: 1.88 mg/g powder
[1]; 18 days
  Stability of Vitamin Es in Powder Concentrate: 1.77 mg/g powder
[1]; 19 days
  Stability of Vitamin Es in Powder Concentrate: 1.85 mg/g powder
[1]; 22 days
  Stability of Vitamin Es in Powder Concentrate: 1.78 mg/g powder
[1]; 23 days
  Stability of Vitamin Es in Powder Concentrate: 1.80 mg/g powder
[1]; 24 days
  Stability of Vitamin Es in Powder Concentrate: 1.90 mg/g powder
[1]; 25 days
  Stability of Vitamin Es in Powder Concentrate: 1.90 mg/g powder
[1]; 26 days
  Stability of Vitamin Es in Powder Concentrate: 1.76 mg/g powder
[1]; 29 days
  Stability of Vitamin Es in Powder Concentrate: 1.87 mg/g powder
[1]; 30 days
  Stability of Vitamin Es in Powder Concentrate: 1.80 mg/g powder
[1]; 60 days
  Stability of Vitamin Es in Powder Concentrate: 1.77 mg/g powder
[1]; 90 days
  Stability of Vitamin Es in Powder Concentrate: 1.83 mg/g powder
[1]; 120 days
  Stability of Vitamin Es in Powder Concentrate: 1.83 mg/g powder
[1]; 150 days
  Stability of Vitamin Es in Powder Concentrate: 1.89 mg/g powder
[1]; 180 days
  Stability of Vitamin Es in Powder Concentrate: 1.77 mg/g powder
[1]; 210 days
  Stability of Vitamin Es in Powder Concentrate: 1.80 mg/g powder
[1]; 240 days
  Stability of Vitamin Es in Powder Concentrate: 1.84 mg/g powder
[1]; 270 days
  Stability of Vitamin Es in Powder Concentrate: 1.87 mg/g powder
[1]; 300 days
  Stability of Vitamin Es in Powder Concentrate: 1.84 mg/g powder
[1]; 330 days
  Stability of Vitamin Es in Powder Concentrate: 1.83 mg/g powder
[1]; 360 days
  Stability of Vitamin Es in Powder Concentrate: 1.79 mg/g powder
[1]; 390 days
  Stability of Vitamin Es in Powder Concentrate: 1.87 mg/g powder
[1]; 420 days
  Stability of Vitamin Es in Powder Concentrate: 1.82 mg/g powder
[1]; 450 days
  Stability of Vitamin Es in Powder Concentrate: 1.80 mg/g powder
[1]; 480 days
  Stability of Vitamin Es in Powder Concentrate: 1.76 mg/g powder
[1]; 510 days
  Stability of Vitamin Es in Powder Concentrate: 1.76 mg/g powder
[1]; 540 days
  Stability of Vitamin Es in Powder Concentrate: 1.80 mg/g powder
[1]; 570 days
  Stability of Vitamin Es in Powder Concentrate: 1.77 mg/g powder
[2]; stored at 8° C., 0 days
  Stability of Vitamin Es in AB White: 12.8 µg/mL
[2]; stored at 8° C., 1 days
  Stability of Vitamin Es in AB White: 11.83 µg/mL
[2]; stored at 8° C., 2 days
  Stability of Vitamin Es in AB White: 12.31 µg/mL
[2]; stored at 8° C., 3 days
  Stability of Vitamin Es in AB White: 11.94 µg/mL
[2]; stored at 8° C., 5 days
  Stability of Vitamin Es in AB White: 11.44 µg/mL
[2]; stored at 8° C., 8 days
  Stability of Vitamin Es in AB White: 11.48 µg/mL
[2]; stored at 8° C., 9 days
  Stability of Vitamin Es in AB White: 12.08 µg/mL
[2]; stored at 8° C., 10 days
  Stability of Vitamin Es in AB White: 12.28 µg/mL
[2]; stored at 8° C., 11 days
  Stability of Vitamin Es in AB White: 11.94 µg/mL
[2]; stored at 8° C., 12 days
  Stability of Vitamin Es in AB White: 12.41 µg/mL
[2]; stored at 8° C., 15 days
  Stability of Vitamin Es in AB White: 11.56 µg/mL
[2]; stored at 8° C., 16 days
  Stability of Vitamin Es in AB White: 12.09 µg/mL
[2]; stored at 8° C., 17 days
  Stability of Vitamin Es in AB White: 11.60 µg/mL
[2]; stored at 8° C., 18 days
  Stability of Vitamin Es in AB White: 11.59 µg/mL
[2]; stored at 8° C., 19 days
  Stability of Vitamin Es in AB White: 11.89 µg/mL
[2]; stored at 8° C., 22 days
  Stability of Vitamin Es in AB White: 11.81 µg/mL
[2]; stored at 8° C., 23 days
  Stability of Vitamin Es in AB White: 11.46 µg/mL
[2]; stored at 8° C., 24 days
  Stability of Vitamin Es in AB White: 11.75 µg/mL
[2]; stored at 8° C., 25 days
  Stability of Vitamin Es in AB White: 12.41 µg/mL
[2]; stored at 8° C., 26 days
  Stability of Vitamin Es in AB White: 11.64 µg/mL
[2]; stored at 8° C., 29 days
  Stability of Vitamin Es in AB White: 12.43 µg/mL
[2]; stored at 8° C., 30 days
  Stability of Vitamin Es in AB White: 11.78 µg/mL
[2]; stored at 8° C., 60 days
  Stability of Vitamin Es in AB White: 12.18 µg/mL
[2]; stored at 8° C., 90 days
  Stability of Vitamin Es in AB White: 11.33 µg/mL
[2]; stored at 8° C., 120 days
  Stability of Vitamin Es in AB White: 11.31 µg/mL
[2]; stored at 8° C., 150 days
  Stability of Vitamin Es in AB White: 12.29 µg/mL
[2]; stored at 8° C., 180 days
  Stability of Vitamin Es in AB White: 11.74 µg/mL
[2]; stored at 8° C., 210 days
  Stability of Vitamin Es in AB White: 11.40 µg/mL
[2]; stored at 8° C., 240 days
  Stability of Vitamin Es in AB White: 11.70 µg/mL
[2]; stored at 8° C., 270 days
  Stability of Vitamin Es in AB White: 11.24 µg/mL
[2]; stored at 8° C., 300 days
  Stability of Vitamin Es in AB White: 11.53 µg/mL
[2]; stored at 8° C., 330 days
  Stability of Vitamin Es in AB White: 11.81 µg/mL
[2]; stored at 8° C., 360 days
  Stability of Vitamin Es in AB White: 11.10 µg/mL
[2]; stored at 8° C., 390 days
  Stability of Vitamin Es in AB White: 11.34 µg/mL
[2]; stored at 8° C., 420 days
  Stability of Vitamin Es in AB White: 11.30 µg/mL
[2]; stored at 8° C., 450 days
  Stability of Vitamin Es in AB White: 11.28 µg/mL
[2]; stored at 8° C., 480 days
  Stability of Vitamin Es in AB White: 10.58 µg/mL
[2]; stored at 8° C., 510 days
  Stability of Vitamin Es in AB White: 10.83 µg/mL
[2]; stored at 8° C., 540 days
  Stability of Vitamin Es in AB White: 10.58 µg/mL
[2]; stored at 8° C., 570 days
  Stability of Vitamin Es in AB White: 10.93 µg/mL
[2]; stored at 21-25° C., 0 days
  Stability of Vitamin Es in AB White: 12.8 µg/mL
[2]; stored at 21-25° C., 1 days
  Stability of Vitamin Es in AB White: 12.6 µg/mL
[2]; stored at 21-25° C., 2 days
  Stability of Vitamin Es in AB White: 12.3 µg/mL
[2]; stored at 21-25° C., 3 days
  Stability of Vitamin Es in AB White: 12.0 µg/mL
[2]; stored at 21-25° C., 5 days
  Stability of Vitamin Es in AB White: 12.0 µg/mL
[2]; stored at 21-25° C., 8 days
  Stability of Vitamin Es in AB White: 11.9 µg/mL
[2]; stored at 21-25° C., 9 days
  Stability of Vitamin Es in AB White: 12.7 µg/mL
[2]; stored at 21-25° C., 10 days
  Stability of Vitamin Es in AB White: 12.5 µg/mL
[2]; stored at 21-25° C., 11 days
  Stability of Vitamin Es in AB White: 11.8 µg/mL
[2]; stored at 21-25° C., 12 days
  Stability of Vitamin Es in AB White: 11.6 µg/mL
[2]; stored at 21-25° C., 15 days
  Stability of Vitamin Es in AB White: 12.6 µg/mL
[2]; stored at 21-25° C., 16 days
  Stability of Vitamin Es in AB White: 11.7 µg/mL
[2]; stored at 21-25° C., 17 days
  Stability of Vitamin Es in AB White: 13.0 µg/mL
[2]; stored at 21-25° C., 18 days
  Stability of Vitamin Es in AB White: 12.9 µg/mL
[2]; stored at 21-25° C., 19 days
  Stability of Vitamin Es in AB White: 12.3 µg/mL
[2]; stored at 21-25° C., 22 days
  Stability of Vitamin Es in AB White: 12.2 µg/mL
[2]; stored at 21-25° C., 23 days
  Stability of Vitamin Es in AB White: 12.3 µg/mL
[2]; stored at 21-25° C., 24 days
  Stability of Vitamin Es in AB White: 12.5 µg/mL
[2]; stored at 21-25° C., 25 days
  Stability of Vitamin Es in AB White: 12.4 µg/mL
[2]; stored at 21-25° C., 26 days
  Stability of Vitamin Es in AB White: 12.2 µg/mL
[2]; stored at 21-25° C., 29 days
  Stability of Vitamin Es in AB White: 12.4 µg/mL
[2]; stored at 21-25° C., 30 days
  Stability of Vitamin Es in AB White: 12.0 µg/mL
[2]; stored at 21-25° C., 60 days
  Stability of Vitamin Es in AB White: 11.9 µg/mL
[2]; stored at 21-25° C., 90 days
  Stability of Vitamin Es in AB White: 11.9 µg/mL
[2]; stored at 21-25° C., 120 days
  Stability of Vitamin Es in AB White: 12.1 µg/mL
[2]; stored at 21-25° C., 150 days
  Stability of Vitamin Es in AB White: 12.7 µg/mL
[2]; stored at 21-25° C., 180 days
  Stability of Vitamin Es in AB White: 11.6 µg/mL
[2]; stored at 21-25° C., 210 days
  Stability of Vitamin Es in AB White: 11.5 µg/mL
[2]; stored at 21-25° C., 240 days
  Stability of Vitamin Es in AB White: 11.5 µg/mL
[2]; stored at 21-25° C., 270 days
  Stability of Vitamin Es in AB White: 11.2 µg/mL
[2]; stored at 21-25° C., 300 days
  Stability of Vitamin Es in AB White: 11.4 µg/mL
[2]; stored at 21-25° C., 330 days
  Stability of Vitamin Es in AB White: 11.3 µg/mL
[2]; stored at 21-25° C., 360 days
  Stability of Vitamin Es in AB White: 11.5 µg/mL
[2]; stored at 21-25° C., 390 days
  Stability of Vitamin Es in AB White: 11.3 µg/mL
[2]; stored at 21-25° C., 420 days
  Stability of Vitamin Es in AB White: 11.6 µg/mL
[2]; stored at 21-25° C., 450 days
  Stability of Vitamin Es in AB White: 11.5 µg/mL
[2]; stored at 21-25° C., 480 days
  Stability of Vitamin Es in AB White: 10.8 µg/mL
[2]; stored at 21-25° C., 510 days
  Stability of Vitamin Es in AB White: 10.9 µg/mL
[2]; stored at 21-25° C., 540 days
  Stability of Vitamin Es in AB White: 10.9 µg/mL
[2]; stored at 21-25° C., 570 days
  Stability of Vitamin Es in AB White: 10.6 µg/mL
